From PMC4881381, “Subcellular Localization of Galloylated Catechins in Tea Plants [Camellia sinensis (L.) O. Kuntze] Assessed via Immunohistochemistry” (Frontiers in Plant Science, 2016) come the findings set out here.

One may read the Kd as the constant that tells how readily two partners part at equilibrium.

SMILES strings stand for the structures.

The target of this test is T1, anti-galloylated catechin monoclonal antibody (mAb) P6C2.
T1 construct: whole purified mAb (~150 kDa; 50 kDa heavy and 25 kDa light chains), biotinylated
Put plainly: bio-layer interferometry (ForteBio Octet Red […], SSA biosensors); direct ELISA. In kind it is binding. (In BLI a coated tip is dipped into the sample, and binding shifts an interference pattern.)

`O=C(O[C@@H]1Cc2c(O)cc(O)cc2O[C@@H]1c1ccc(O)c(O)c1)c1cc(O)c(O)c(O)c1` [ECG, (-)-epicatechin-3-gallate] registered an equilibrium dissociation constant (Kd) of 0.197 µM. `O=C(O[C@@H]1Cc2c(O)cc(O)cc2O[C@@H]1c1cc(O)c(O)c(O)c1)c1cc(O)c(O)c(O)c1` [EGCG, (-)-epigallocatechin-3-gallate] registered a dissociation constant (Kd) of 9.25 µM.
